Source: patent publication US20090005395A1 (Solvay Pharmaceuticals, B.V., priority 2007, published 2009)
Where two headings read alike, the source gives them in different places.

Legend:
PDE-III = PDE-III (Homo sapiens, UniProt Q14432); experiment: In vitro inhibition of phosphodiesterases (CEREP): PDE-III
PDE-V = PDE-V (Homo sapiens, UniProt O76074); experiment: In vitro inhibition of phosphodiesterases (CEREP): PDE-V
[1] = Plasma pharmacokinetics of sildenafil and its N-oxide; format: in vivo; conditions: male, NMRI, mouse, mice; for Kp: brain, read-out: Brain/plasma ratio; for AUC: read-out: AUC0→end; for AUC(0-inf): Tend = ∞
Method: Liquid Chromatography-Tandem Mass Spectrometry (LC-MS/MS) was performed using a Sciex API4000 LC-MS/MS. […] Compound peak area was used for quantification. The calibration curves were fitted to the model y=A+Bx+Cx^2 (y is the peak area of the analyte, x is the nominal calibration level in ng/ml (plasma) or ng/g (brain), A is the intercept, B is the slope and C is the description of the curvature). 1/x^2 weighing was used. LC-MS/MS system performance was monitored using a reference solution injected at standard intervals. […] The Lower Limit Of Quantification (LLOQ) was established at 1.00 ng/ml and 5.00 ng/brain, for plasma and brain samples, respectively. Reversed phase HPLC was performed using gradient elution by a Hypersil BDS C18 100×4.6 mm 3 μm analytical column, with a temperature of 45° C. and a flow of 1.00 ml/min: […]

PDE-VI = molecular target: T1, PDE-VI (Bos taurus, UniProt P11541+P23439); experiment: In vitro inhibition of phosphodiesterases (CEREP): PDE-VI
T1 sequence (P11541 2-856 limits assumed): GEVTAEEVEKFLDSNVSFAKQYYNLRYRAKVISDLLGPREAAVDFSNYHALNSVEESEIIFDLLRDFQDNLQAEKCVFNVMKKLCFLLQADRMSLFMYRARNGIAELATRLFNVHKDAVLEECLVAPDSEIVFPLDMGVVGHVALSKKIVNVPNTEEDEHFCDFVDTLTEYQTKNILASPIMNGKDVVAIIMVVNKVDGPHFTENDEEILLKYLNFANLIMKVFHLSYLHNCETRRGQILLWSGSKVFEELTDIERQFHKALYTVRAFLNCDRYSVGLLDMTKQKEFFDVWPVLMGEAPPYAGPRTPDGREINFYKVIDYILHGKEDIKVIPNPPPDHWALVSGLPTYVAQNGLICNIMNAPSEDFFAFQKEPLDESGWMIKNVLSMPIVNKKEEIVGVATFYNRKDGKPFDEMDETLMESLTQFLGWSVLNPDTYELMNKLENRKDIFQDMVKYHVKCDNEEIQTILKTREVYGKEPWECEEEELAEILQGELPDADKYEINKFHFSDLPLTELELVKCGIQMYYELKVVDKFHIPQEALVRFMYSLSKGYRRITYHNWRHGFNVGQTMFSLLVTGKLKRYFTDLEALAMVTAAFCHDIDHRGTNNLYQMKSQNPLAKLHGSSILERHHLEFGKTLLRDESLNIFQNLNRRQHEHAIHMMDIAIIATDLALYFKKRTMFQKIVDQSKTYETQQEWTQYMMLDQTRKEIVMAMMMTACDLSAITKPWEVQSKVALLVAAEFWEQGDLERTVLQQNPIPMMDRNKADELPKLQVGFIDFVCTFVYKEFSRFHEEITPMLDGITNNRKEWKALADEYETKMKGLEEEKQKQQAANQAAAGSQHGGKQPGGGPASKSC
T1 sequence (P23439 2-850 limits assumed): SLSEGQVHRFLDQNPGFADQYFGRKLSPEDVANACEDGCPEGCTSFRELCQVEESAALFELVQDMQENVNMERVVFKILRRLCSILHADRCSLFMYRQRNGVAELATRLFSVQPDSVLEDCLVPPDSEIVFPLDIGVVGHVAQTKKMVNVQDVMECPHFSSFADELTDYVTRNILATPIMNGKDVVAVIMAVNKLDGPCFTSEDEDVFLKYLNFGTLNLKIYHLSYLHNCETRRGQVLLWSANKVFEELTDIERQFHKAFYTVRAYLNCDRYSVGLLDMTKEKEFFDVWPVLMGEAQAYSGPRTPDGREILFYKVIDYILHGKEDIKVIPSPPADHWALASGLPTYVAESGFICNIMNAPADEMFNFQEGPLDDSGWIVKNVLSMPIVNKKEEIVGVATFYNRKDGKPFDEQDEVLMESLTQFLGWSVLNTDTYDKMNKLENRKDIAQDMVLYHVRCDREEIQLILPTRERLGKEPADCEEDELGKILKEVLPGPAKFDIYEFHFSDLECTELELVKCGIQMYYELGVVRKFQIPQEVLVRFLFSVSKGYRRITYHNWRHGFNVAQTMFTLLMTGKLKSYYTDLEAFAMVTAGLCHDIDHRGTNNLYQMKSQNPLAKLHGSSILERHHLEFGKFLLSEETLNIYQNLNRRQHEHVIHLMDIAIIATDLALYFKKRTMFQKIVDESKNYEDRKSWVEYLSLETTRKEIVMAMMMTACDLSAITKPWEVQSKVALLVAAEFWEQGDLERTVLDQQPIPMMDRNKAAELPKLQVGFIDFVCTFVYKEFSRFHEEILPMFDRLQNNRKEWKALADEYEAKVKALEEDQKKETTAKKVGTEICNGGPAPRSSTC

PDE-II = PDE-II (Homo sapiens, UniProt O00408); experiment: In vitro inhibition of phosphodiesterases (CEREP): PDE-II
Chain of PDE-II (O00408 whole entry): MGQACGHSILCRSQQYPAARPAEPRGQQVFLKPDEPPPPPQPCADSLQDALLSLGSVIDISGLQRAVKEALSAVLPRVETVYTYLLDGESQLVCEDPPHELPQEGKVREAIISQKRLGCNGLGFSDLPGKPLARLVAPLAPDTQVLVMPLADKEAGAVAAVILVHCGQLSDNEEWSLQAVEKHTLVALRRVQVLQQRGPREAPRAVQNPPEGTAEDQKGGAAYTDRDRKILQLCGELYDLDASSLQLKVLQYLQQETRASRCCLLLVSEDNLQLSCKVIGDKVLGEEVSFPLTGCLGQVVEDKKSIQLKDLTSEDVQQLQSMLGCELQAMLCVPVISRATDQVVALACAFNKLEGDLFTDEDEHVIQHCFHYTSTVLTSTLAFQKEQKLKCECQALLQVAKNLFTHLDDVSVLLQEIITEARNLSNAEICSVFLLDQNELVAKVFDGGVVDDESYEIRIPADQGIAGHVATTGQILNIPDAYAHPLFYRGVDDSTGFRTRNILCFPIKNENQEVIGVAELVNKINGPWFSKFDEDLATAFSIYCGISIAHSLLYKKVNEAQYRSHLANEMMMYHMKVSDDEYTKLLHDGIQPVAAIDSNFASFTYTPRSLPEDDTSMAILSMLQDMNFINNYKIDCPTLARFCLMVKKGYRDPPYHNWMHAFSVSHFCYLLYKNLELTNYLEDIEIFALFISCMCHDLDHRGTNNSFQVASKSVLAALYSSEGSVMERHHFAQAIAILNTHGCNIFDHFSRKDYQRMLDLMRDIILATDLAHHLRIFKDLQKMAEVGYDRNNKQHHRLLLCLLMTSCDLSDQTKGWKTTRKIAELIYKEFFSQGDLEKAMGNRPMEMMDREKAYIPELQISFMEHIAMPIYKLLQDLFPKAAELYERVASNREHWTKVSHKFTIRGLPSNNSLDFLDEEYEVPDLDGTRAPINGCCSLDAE

Chain of PDE-III (Q14432 674-1093 limits assumed): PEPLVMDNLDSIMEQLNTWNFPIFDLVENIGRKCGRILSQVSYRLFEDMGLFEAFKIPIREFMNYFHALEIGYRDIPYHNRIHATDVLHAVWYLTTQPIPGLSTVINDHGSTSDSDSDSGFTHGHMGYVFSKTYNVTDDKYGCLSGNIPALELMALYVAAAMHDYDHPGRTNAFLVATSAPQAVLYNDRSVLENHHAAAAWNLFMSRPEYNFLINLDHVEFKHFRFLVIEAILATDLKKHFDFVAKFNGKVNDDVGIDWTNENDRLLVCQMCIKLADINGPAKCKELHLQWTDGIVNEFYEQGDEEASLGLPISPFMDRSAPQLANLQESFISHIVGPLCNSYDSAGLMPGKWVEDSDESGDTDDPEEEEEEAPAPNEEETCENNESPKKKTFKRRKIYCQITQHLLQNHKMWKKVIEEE

IC50 (PDE-III): > 10 µM
IC50 (PDE-V): 200 nM
activity relative to the parent compound sildenafil (PDE-V): about one tenth
fold less potent than sildenafil (PDE-V; from Table 5): 10 fold
Kp ([1]; iv, i.v. 1 mg/kg): 0.5
Kp ([1]; po, p.o. 10 mg/kg): 2.5
Tmax ([1]; iv, plasma, i.v. 1 mg/kg): 0 h
half-life ([1]; iv, plasma, i.v. 1 mg/kg): 24 min
AUC ([1]; iv, plasma, i.v. 1 mg/kg, Tend = 3 hrs): 125 ng·h/mL
AUC(0-inf) ([1]; iv, plasma, i.v. 1 mg/kg): 125 ng·h/mL
Cmax ([1]; iv, plasma, i.v. 1 mg/kg, extrapolated to T0 (time zero), read-out: Cmax (C0)): 495 ng/mL
Vd ([1]; plasma, iv, i.v. 1 mg/kg): 5 L/kg
clearance ([1]; plasma, iv, i.v. 1 mg/kg): 133 mL/min/kg
bioavailability ([1]; plasma, po, 10 mg/kg, i.v.): 1.5%
Tmax ([1]; po, plasma, p.o. 10 mg/kg): 1 h
half-life ([1]; po, plasma, p.o. 10 mg/kg): 306 min
AUC ([1]; po, plasma, p.o. 10 mg/kg, Tend = 24 hrs): 10.8 ng·h/mL
AUC(0-inf) ([1]; po, plasma, p.o. 10 mg/kg): 18.8 ng·h/mL
Cmax ([1]; po, plasma, p.o. 10 mg/kg, read-out: Cmax): 2.7 ng/mL
IC50 (PDE-VI): 1000 nM
IC50 (PDE-II): > 10 µM
Structure (SMILES): CCCc1nn(C)c2c(=O)[nH]c(-c3cc(S(=O)(=O)N4CC[N+](C)([O-])CC4)ccc3OCC)nc12 [Sildenafil-N-oxide, 1-[[3-(6,7-dihydro-1-methyl-7-oxo-3-propyl-1H-pyrazolo[4,3-d]pyrimidin-5-yl)-4-ethoxyphenyl]sulfonyl]-4-methyl-4-oxido-piperazine]
